Test results: paper PMC7118210 (Frontiers in Pharmacology, 2020)

Key:
[1] = Multiple-dose pharmacokinetics in rats; assay type: in vivo, Sprague Dawley rats
Procedure: (§1) The optimal volume and activity in unit volume of enzyme solution [0.2 M acetic acid/water solution: 0.2 M ammonium acetate/water solution, 15:35 (v/v)] were determined through a pretest of the enzyme (rat plasma, 10 μl, 10 U μl^-1; dog plasma, 10 μl, 10 U μl^-1; human plasma, 20 μl, 20 U μl^-1; human urine, 10 μl, 10 U μl^-1). After enzyme incubation, 10 μl of IS solution was added to the plasma and urine samples (2 μg ml^-1 quercetin 3-β-D-glucoside for rat and dog plasma; 583 ng ml^-1 naringin-D4 and 160 ng ml^-1 naringenin-D4 for human plasma; and 9,710 ng ml^-1 naringin-D4 and 6,000 ng ml^-1 naringenin-D4 for human urine). To each fecal sample, 9-fold methanol-normal saline (2:1, v/v) was added, mixed (18,000 rpm, 15 min) by vortexing and centrifuged (10 min, 9,000 rpm, 4°C). Next, 10 μl IS solution (971 ng ml^-1 naringin-D4 and 600 ng ml^-1 naringenin-D4) was added to the supernatants of feces (200 μl) without enzyme incubation. […] The solid material was dissolved with acetonitrile-water (1:1, v/v) and injected into the ultra high-performance liquid chromatography coupled with triple quadrupole mass spectrometry (UHPLC/MS/MS) system as described below. The analysis of nonclinical and clinical samples was performed with a UHPLC/MS/MS system that consisted of a Shimadzu Nexera X2 ultra high-performance liquid chromatography (UHPLC) (Shimadzu Corp., Kyoto, Japan) coupled with an AB Sciex API4000 triple-quadrupole mass spectrometry (MS/MS) system (AB Sciex, Foster City, CA, USA) equipped with an electrospray ionization source and controlled by Analyst (v. 1.6.2) software. […] The injection volume was 10 μl with the flow rate of 0.3 ml min^-1 for plasma, and 0.4 ml min^-1 for urine and feces. The compounds were detected by multiple reaction monitoring in the negative ion electrospray mode. The electrospray source conditions were as follows: ion source gas1 30 psi, ion source gas2 60 psi, curtain gas 20 psi, collisionally activated dissociation (CAD) gas 8 psi, temperature 500°C, and ion spray voltage −4,500 V. Zero air was used for ion source gas1 and ion source gas2 and nitrogen for curtain gas and CAD gas. […] All pharmacokinetic and excretion parameters were expressed as mean ± standard deviation (SD). All mean and SD values were reported to three significant figures. The pharmacokinetic parameters were calculated using the Phoenix WinNonlin software (Version 6.4, Pharsight Corp., Cary, NC, USA) and compared using the Student's t-test (p < 0.05) in SPSS 18.0 (SPSS Inc., Chicago, IL, USA). […] For the multiple-dose studies, pharmacokinetic parameters included the mean plasma level at steady state, Tmax, t1/2, the percent fluctuation, and the accumulation index (Table 3). […] In addition, we compared the pharmacokinetic parameters obtained from males and females (Tables 4–6).

[2] = Multiple-dose pharmacokinetics in healthy humans; assay type: in vivo, human
Procedure: as §1, with “Naringin and placebo tablets were identical in appearance and participants, care providers, and those assessing outcomes were blinded to the study drug assignment. Using the Statistical Analysis System (SAS) software (Version 9.4, SAS Institute Inc., Cary, NC, USA), subject randomization and blinding/masking were performed by statisticians from the Department of Health Statistics at the Second Military Medical University. […] Human urine samples were collected at −12~0, 0~4, 4~8, 8~12, 12~24, 24~36, 36~48, 48~60, and 60~72 h for the single-dose groups and −12~0 (Day1), −12~0 (Day7), 0~4, 4~8, 8~12, 12~24, 24~36, 36~48, 48~60, and 60~72 h (Day7) for the multiple-dose group with records of volume. Human feces were collected in storage boxes, weighed, and recorded from 12 h before administration to 72 h postadministration. […] The optimal” for “The optimal”

[3] = naringin 42 mg kg^-1 multiple dose, rat, female
[4] = naringin 42 mg kg^-1 multiple dose, rat, male
[5] = naringin 42 mg kg^-1 p.o. three times a day, multiple dose, rat
[6] = naringin 160 mg multiple dose, human, female
[7] = naringin 160 mg multiple dose, human, male
[8] = naringin 160 mg p.o. three times a day, multiple dose, human

accumulation in multiple-dose study ([1]; rat, in vivo)	accumulation in multiple-dose study ([2]; in vivo)	Tmax [2, 8]	Compound	CavSS [1, 3]	Fluctuation [1, 3]	CavSS [1, 4]	Fluctuation [1, 4]	CavSS [1, 5]	Fluctuation ([1]; naringin 42 mg kg^-1 p.o. three times a day, multiple dose, rat, (CmaxSS−CminSS)/CavSS×100%)	accumulation in multiple-dose study ([1]; rats)	accumulation in multiple-dose study ([2]; humans)	CavSS [2, 6]	Fluctuation [2, 6]	CavSS [2, 7]	Fluctuation [2, 7]	CavSS [2, 8]	Fluctuation ([2]; naringin 160 mg p.o. three times a day, multiple dose, human, (CmaxSS−CminSS)/CavSS×100%)
			C[C@@H]1O[C@@H](O[C@H]2[C@H](Oc3cc(O)c4c(c3)O[C@H](c3ccc(O)cc3)CC4=O)O[C@H](CO)[C@@H](O)[C@@H]2O)[C@H](O)[C@H](O)[C@H]1O [naringin, Naringin]	17.4 ± 19.9 ng/mL	612 ± 233%	6.03 ± 9.48 ng/mL	844 ± 1,030%	11.7 ± 15.9 ng/mL	728 ± 711%	no significant accumulation	no significant accumulation	1.74 ± 0.377 ng/mL	149 ± 37.5%	1.75 ± 0.403 ng/mL	210 ± 79.6%	1.75 ± 0.365 ng/mL	187 ± 70.7%
no significant accumulation	no significant accumulation	5.83 ± 1.17 h	O=C1C[C@@H](c2ccc(O)cc2)Oc2cc(O)cc(O)c21 [naringenin, Naringenin]	600 ± 517 ng/mL		178 ± 90.8 ng/mL		389 ± 415 ng/mL				22.6 ± 8.42 ng/mL		47.2 ± 47 ng/mL		39 ± 38.7 ng/mL	
